Earlier results on 1 compound are cited in US12161674B2, “CRISPR-CAS9 modified CD34+ human hematopoietic stem and progenitor cells and uses thereof” (Vertex Pharmaceuticals Incorporated, priority 2018, dated 2024).

In this data set the test system is CD34^+ cells. Conditions: plerixafor alone.

For the compound `c1cc(CN2CCCNCCNCCCNCC2)ccc1CN1CCCNCCNCCCNCC1` [plerixafor], the “subjects with non-severe pain crisis” value (despite RBC transfusions in the preceding 2 months) was 3 of 7. Besides, the “median collection of CD34^+ cells after a single apheresis” value (subjects with severe SCD, range 5.1 to 20.0) is 10.4×10^6 CD34^+ cells/kg.
